Read-outs that look alike come from different tables or passages of the source.
Columns and labels:
kinases (468) [1] = target: kinases (468) (Homo sapiens, UniProt O00444); details: PLK4; 1000 nM
kinases (468) [2] = target: kinases (468) (Homo sapiens, UniProt O14733); details: MKK7 (MAP2K7); 1000 nM
kinases (468) [3] = target: kinases (468) (Homo sapiens, UniProt O15197); details: EPHB6; 1000 nM
kinases (468) [4] = target: kinases (468) (Homo sapiens, UniProt O43318); details: kinase TAK1 (Entrez MAP3K7); compound concentration 1000 nM
kinases (468) [5] = target: kinases (468) (Homo sapiens, UniProt O75582); details: compound concentration 1000 nM
kinases (468) (Homo sapiens, UniProt O75582), sequence (O75582 whole entry): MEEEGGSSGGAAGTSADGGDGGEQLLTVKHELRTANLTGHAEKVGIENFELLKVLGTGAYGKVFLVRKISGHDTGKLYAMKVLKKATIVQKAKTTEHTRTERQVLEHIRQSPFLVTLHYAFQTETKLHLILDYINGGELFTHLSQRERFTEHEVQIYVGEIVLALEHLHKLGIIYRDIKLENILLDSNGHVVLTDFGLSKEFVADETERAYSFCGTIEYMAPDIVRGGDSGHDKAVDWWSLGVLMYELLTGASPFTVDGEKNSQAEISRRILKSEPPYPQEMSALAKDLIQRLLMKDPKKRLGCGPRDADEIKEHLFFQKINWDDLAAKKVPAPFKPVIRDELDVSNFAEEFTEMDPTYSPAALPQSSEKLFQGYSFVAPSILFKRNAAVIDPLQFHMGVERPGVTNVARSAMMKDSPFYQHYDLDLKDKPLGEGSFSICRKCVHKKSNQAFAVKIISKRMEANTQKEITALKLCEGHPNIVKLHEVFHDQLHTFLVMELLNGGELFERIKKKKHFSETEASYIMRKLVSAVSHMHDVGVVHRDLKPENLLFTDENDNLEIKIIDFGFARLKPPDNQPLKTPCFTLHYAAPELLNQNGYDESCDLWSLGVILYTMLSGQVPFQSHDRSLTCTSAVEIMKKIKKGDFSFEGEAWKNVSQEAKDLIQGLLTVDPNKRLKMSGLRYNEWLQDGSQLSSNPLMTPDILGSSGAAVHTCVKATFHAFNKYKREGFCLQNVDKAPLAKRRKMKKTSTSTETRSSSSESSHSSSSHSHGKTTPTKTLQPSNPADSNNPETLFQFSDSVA

kinases (468) [6] = target: kinases (468) (Homo sapiens, UniProt O95747); details: OSR1 (OXSR1); 1000 nM
kinases (468) [7] = target: kinases (468) (Homo sapiens, UniProt P10721, D816V); details: KIT(D816V); 1000 nM
kinases (468) [8] = target: kinases (468) (Homo sapiens, UniProt P11309); details: PIM1; 1000 nM
kinases (468) (Homo sapiens, UniProt P11309), sequence (P11309 whole entry): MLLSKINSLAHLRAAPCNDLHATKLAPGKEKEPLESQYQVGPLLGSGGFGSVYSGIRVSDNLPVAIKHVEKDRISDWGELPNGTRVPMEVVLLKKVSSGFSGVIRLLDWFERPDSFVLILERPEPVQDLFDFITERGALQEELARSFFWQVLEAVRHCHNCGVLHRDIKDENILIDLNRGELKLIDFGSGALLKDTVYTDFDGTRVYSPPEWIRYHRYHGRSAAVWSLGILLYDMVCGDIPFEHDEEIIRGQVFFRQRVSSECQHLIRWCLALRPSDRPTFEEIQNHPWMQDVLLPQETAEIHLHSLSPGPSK

kinases (468) [9] = target: kinases (468) (Homo sapiens, UniProt P11362); details: FGFR1; 1000 nM
kinases (468) [10] = target: kinases (468) (Homo sapiens, UniProt P32298); details: GRK4; 1000 nM
kinases (468) [11] = target: kinases (468) (Homo sapiens, UniProt P36888); details: 1000 nM
kinases (468) (Homo sapiens, UniProt P36888), sequence (P36888 27-993): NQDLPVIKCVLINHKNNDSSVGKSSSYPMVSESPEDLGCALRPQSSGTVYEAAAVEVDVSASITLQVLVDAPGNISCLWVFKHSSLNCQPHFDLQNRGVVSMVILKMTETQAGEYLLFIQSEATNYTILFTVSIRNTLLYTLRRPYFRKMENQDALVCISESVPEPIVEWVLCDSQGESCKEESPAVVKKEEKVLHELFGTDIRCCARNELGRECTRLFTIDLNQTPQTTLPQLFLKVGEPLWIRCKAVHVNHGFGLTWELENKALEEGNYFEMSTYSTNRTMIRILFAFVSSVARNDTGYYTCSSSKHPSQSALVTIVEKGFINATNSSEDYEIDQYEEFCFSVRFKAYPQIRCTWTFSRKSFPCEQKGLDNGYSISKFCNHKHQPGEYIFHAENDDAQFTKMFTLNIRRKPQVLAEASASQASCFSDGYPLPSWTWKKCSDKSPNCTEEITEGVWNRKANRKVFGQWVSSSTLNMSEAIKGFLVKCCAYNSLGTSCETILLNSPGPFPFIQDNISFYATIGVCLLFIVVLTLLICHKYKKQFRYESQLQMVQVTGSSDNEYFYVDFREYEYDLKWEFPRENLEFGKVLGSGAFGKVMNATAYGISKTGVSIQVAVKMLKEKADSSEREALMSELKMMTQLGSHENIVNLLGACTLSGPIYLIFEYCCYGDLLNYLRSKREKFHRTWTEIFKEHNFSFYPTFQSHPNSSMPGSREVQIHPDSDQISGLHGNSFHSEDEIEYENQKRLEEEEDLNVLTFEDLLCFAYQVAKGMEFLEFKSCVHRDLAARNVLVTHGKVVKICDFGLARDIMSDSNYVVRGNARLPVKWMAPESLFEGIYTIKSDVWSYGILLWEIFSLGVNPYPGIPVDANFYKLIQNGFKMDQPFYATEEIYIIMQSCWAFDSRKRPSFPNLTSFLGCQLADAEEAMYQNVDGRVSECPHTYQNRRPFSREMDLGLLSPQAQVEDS

kinases (468) [12] = target: kinases (468) (Homo sapiens, UniProt P42336, Q546K); details: PIK3CA(Q546K); 1000 nM
kinases (468) [13] = target: kinases (468) (Homo sapiens, UniProt P42684); details: ABL2; 1000 nM
kinases (468) [14] = target: kinases (468) (Homo sapiens, UniProt P45983); details: JNK1 (MAPK8); 1000 nM
kinases (468) [15] = target: kinases (468) (Homo sapiens, UniProt P45984); details: JNK2 (MAPK9); 1000 nM
kinases (468) [16] = target: kinases (468) (Homo sapiens, UniProt P49137); details: MAPKAPK2; 1000 nM
kinases (468) [17] = target: kinases (468) (Homo sapiens, UniProt P50750); details: CDK9; 1000 nM
kinases (468) [18] = target: kinases (468) (Homo sapiens, UniProt P53350); details: PLK1; 1000 nM
kinases (468) [19] = target: kinases (468) (Homo sapiens, UniProt Q06418); details: kinase TYRO3 (Entrez TYRO3); compound concentration 1000 nM
kinases (468) (Homo sapiens, UniProt Q06418), sequence (Q06418 41-890): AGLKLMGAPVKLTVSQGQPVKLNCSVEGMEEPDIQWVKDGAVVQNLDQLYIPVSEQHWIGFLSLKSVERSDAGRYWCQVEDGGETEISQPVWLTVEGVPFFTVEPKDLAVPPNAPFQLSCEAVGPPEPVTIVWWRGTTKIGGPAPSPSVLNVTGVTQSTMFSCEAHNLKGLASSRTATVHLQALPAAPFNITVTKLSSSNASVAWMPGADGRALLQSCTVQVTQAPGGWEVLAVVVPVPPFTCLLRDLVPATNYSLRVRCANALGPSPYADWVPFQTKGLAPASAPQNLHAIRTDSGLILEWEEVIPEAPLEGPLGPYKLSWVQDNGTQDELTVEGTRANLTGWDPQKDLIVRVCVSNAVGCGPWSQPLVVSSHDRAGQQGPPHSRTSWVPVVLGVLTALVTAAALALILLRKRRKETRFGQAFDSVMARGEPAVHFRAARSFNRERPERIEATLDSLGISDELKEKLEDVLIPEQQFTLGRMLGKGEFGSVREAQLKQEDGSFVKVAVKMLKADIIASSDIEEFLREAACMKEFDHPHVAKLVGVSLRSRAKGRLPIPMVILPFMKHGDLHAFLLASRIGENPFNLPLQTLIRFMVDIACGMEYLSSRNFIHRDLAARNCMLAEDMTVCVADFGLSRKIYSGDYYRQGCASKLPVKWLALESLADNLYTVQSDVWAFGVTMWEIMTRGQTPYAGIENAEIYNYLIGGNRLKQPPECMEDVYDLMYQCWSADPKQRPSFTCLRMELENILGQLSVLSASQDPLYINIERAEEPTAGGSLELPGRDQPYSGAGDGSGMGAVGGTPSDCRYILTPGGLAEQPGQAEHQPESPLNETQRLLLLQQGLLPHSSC

kinases (468) [20] = target: kinases (468) (Homo sapiens, UniProt Q13523); details: PRP4 (PRPF4B); 1000 nM
kinases (468) [21] = target: kinases (468) (Homo sapiens, UniProt Q13976); details: PRKG1; 1000 nM
kinases (468) [22] = target: kinases (468) (Homo sapiens, UniProt Q15569); details: kinase TESK1 (Entrez TESK1); compound concentration 1000 nM
kinases (468) (Homo sapiens, UniProt Q15569), sequence (Q15569 whole entry): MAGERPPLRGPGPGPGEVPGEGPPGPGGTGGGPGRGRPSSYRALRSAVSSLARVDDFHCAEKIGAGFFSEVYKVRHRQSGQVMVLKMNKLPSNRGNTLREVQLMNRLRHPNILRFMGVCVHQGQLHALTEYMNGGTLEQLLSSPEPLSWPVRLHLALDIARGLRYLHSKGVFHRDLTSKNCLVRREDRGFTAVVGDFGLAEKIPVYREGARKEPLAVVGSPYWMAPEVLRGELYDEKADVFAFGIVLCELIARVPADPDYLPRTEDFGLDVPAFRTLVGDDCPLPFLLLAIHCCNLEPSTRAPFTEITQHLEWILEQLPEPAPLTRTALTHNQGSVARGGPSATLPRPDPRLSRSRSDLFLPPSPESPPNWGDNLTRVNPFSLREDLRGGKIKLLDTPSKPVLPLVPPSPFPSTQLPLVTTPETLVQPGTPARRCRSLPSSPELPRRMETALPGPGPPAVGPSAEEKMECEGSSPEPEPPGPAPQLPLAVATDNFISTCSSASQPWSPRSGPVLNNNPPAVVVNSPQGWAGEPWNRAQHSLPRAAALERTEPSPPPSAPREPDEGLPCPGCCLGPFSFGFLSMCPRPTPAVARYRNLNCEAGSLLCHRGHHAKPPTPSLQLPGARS

kinases (468) [23] = target: kinases (468) (Homo sapiens, UniProt Q6ZWH5); details: NEK10; 1000 nM
kinases (468) [24] = target: kinases (468) (Homo sapiens, UniProt Q8N752); details: CSNK1A1L; 1000 nM
kinases (468) [25] = target: kinases (468) (Homo sapiens, UniProt Q96L34); details: MARK4; 1000 nM
kinases (468) [26] = target: kinases (468) (Homo sapiens, UniProt Q9BYP7); details: kinase WNK3 (Entrez WNK3); compound concentration 1000 nM
kinases (468) [27] = target: kinases (468) (Homo sapiens, UniProt Q9NY57); details: kinase YANK2 (Entrez STK32B); compound concentration 1000 nM
kinases (468) [28] = target: kinases (468) (Homo sapiens, UniProt Q9NYY3); details: PLK2; 1000 nM
kinases (468) [29] = target: kinases (468) (Homo sapiens, UniProt Q9UF33); details: EPHA6; 1000 nM
kinases (468) [30] = target: kinases (468) (Homo sapiens, UniProt Q9UK32); details: compound concentration 1000 nM
kinases (468) (Homo sapiens, UniProt Q9UK32), sequence (Q9UK32 whole entry): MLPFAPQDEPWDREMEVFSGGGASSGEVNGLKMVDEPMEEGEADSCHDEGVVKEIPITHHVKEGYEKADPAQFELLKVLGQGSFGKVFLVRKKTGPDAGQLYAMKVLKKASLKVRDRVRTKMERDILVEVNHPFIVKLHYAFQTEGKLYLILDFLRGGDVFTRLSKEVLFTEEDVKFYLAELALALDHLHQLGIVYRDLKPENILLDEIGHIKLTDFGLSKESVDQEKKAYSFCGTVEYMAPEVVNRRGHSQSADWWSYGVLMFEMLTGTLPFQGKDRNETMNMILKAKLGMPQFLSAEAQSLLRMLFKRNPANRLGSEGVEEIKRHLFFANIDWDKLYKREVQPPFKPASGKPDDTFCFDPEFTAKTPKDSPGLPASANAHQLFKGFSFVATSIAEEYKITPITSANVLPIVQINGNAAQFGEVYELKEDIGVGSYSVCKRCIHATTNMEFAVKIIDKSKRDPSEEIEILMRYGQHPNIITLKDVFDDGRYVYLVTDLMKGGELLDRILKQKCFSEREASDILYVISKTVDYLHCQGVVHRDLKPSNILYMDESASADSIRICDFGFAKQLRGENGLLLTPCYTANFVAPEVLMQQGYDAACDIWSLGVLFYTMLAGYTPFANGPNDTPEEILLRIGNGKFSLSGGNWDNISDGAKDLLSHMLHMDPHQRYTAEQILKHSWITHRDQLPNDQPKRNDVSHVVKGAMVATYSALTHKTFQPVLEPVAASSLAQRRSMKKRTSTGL

kinases (468) [31] = target: kinases (468) (Homo sapiens, UniProt Q9UKI8); details: kinase TLK1 (Entrez TLK1); compound concentration 1000 nM
kinases (468) (Homo sapiens, UniProt Q9UKI8), sequence (Q9UKI8 whole entry): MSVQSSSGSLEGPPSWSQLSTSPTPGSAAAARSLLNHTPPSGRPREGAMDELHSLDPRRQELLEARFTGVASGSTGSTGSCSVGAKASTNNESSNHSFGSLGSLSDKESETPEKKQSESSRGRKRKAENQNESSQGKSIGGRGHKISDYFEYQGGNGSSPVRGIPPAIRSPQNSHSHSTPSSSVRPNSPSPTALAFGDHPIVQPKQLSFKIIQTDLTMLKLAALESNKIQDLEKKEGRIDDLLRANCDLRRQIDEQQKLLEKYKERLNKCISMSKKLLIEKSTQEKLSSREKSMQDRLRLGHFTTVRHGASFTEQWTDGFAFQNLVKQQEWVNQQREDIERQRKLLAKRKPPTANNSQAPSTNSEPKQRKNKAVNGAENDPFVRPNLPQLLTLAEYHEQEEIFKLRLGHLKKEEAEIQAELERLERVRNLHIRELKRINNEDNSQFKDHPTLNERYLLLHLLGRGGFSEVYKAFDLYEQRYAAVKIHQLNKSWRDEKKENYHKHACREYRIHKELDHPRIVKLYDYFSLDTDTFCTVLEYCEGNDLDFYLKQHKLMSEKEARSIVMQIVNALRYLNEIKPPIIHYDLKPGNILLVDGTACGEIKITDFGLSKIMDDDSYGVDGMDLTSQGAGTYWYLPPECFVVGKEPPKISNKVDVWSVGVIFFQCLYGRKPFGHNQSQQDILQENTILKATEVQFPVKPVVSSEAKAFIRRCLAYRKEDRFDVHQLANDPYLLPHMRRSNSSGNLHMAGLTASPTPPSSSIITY

kinases (468) [32] = target: kinases (468) (Homo sapiens, UniProt Q9UL54); details: kinase TAOK2 (Entrez TAOK2); compound concentration 1000 nM
kinases (468) [33] = target: kinases (468) (Homo sapiens, UniProt Q9Y5S2); details: MRCKB (CDC42BPB); 1000 nM

C[C@H]1C[C@@H](O)CN(c2ncc(Cl)c(Nc3ccc4c(c3)c3c(c(=O)n4C)OCC(F)(F)[C@H](C4CC4)N3)n2)C1 [CCT373566_9A]
Percent Control (kinases (468) [1]): 100% | Percent Control (kinases (468) [2]): 91% | Percent Control (kinases (468) [3]): 93% | Percent Control (kinases (468) [4]): 100% | Percent Control (kinases (468) [5]; kinase RPS6KA5(Kin.Dom.1-N-terminal) (Entrez RPS6KA5)): 93% | Percent Control (kinases (468) [5]; kinase RPS6KA5(Kin.Dom.2-C-terminal) (Entrez RPS6KA5)): 96% | Percent Control (kinases (468) [6]): 100% | Percent Control (kinases (468) [7]): 100% | Percent Control (kinases (468) [8]): 100% | Percent Control (kinases (468) [9]): 100% | Percent Control (kinases (468) [10]): 91% | Percent Control (kinases (468) [11]; FLT3-autoinhibited): 98% | Percent Control (kinases (468) [11]; FLT3): 99% | Percent Control (kinases (468) [12]): 89% | Percent Control (kinases (468) [13]): 100% | Percent Control (kinases (468) [14]): 85% | Percent Control (kinases (468) [15]): 78% | Percent Control (kinases (468) [16]): 97% | Percent Control (kinases (468) [17]): 96% | Percent Control (kinases (468) [18]): 83% | Percent Control (kinases (468) [19]): 100% | Percent Control (kinases (468) [20]): 94% | Percent Control (kinases (468) [21]): 96% | Percent Control (kinases (468) [22]): 100% | Percent Control (kinases (468) [23]): 99% | Percent Control (kinases (468) [24]): 96% | Percent Control (kinases (468) [25]): 100% | Percent Control (kinases (468) [26]): 96% | Percent Control (kinases (468) [27]): 90% | Percent Control (kinases (468) [28]): 87% | Percent Control (kinases (468) [29]): 100% | Percent Control (kinases (468) [30]; kinase RSK4(Kin.Dom.1-N-terminal) (Entrez RPS6KA6)): 90% | Percent Control (kinases (468) [30]; kinase RSK4(Kin.Dom.2-C-terminal) (Entrez RPS6KA6)): 88% | Percent Control (kinases (468) [31]): 87% | Percent Control (kinases (468) [32]): 87% | Percent Control (kinases (468) [33]): 100%

Source: paper PMC9234961 (Journal of Medicinal Chemistry, 2022)
